According to publication PMC5218480 (PLoS ONE, 2017):

Test system: MV-4-11 cells
Assay: Gene expression microarray analysis (Affymetrix PrimeView) and GSEA
Assay type: cell-based, human
Design: RFU PODN (11730768_x_at) / Fold change /veh PODN (11730768_x_at) / RFU LINC00158 (11744669_a_at) / Fold change /veh LINC00158 (11744669_a_at) / RFU DUSP10 (11751237_a_at) / Fold change /veh DUSP10 (11751237_a_at) / RFU ID3 (11757404_x_at) / Fold change /veh ID3 (11757404_x_at) / RFU PLEKHG5 (11737974_s_at) / Fold change /veh PLEKHG5 (11737974_s_at) / RFU LRRC4B (11730491_at) / Fold change /veh LRRC4B (11730491_at) / RFU GIMAP4 (11747438_a_at) / Fold change /veh GIMAP4 (11747438_a_at) / RFU KRT8 (11758183_x_at) / Fold change /veh KRT8 (11758183_x_at) / RFU CNN1 (11734310_a_at) / Fold change /veh CNN1 (11734310_a_at) / RFU VPS37D (11726825_at) / Fold change /veh VPS37D (11726825_at) / RFU C10orf10 (11716522_x_at) / Fold change /veh C10orf10 (11716522_x_at) / RFU KIR2DL2 /// KIR2DL4 /// KIR2DL5A /// KIR2DL5B /// KIR2DS1 /// KIR2DS2 /// KIR2DS3 /// KIR2DS4 /// KIR3DL3 /// KIR3DL3 /// KIR3DS1 (11738374_at) / Fold change /veh KIR2DL2 /// KIR2DL4 /// KIR2DL5A /// KIR2DL5B /// KIR2DS1 /// KIR2DS2 /// KIR2DS3 /// KIR2DS4 /// KIR3DL3 /// KIR3DL3 /// KIR3DS1 (11738374_at) / RFU C1QL1 (11718748_at) / Fold change /veh C1QL1 (11718748_at) / RFU TMPRSS4 (11747572_a_at) / Fold change /veh TMPRSS4 (11747572_a_at) / RFU HAMP (11756126_x_at) / Fold change /veh HAMP (11756126_x_at) / RFU RNFT2 (11725882_a_at) / Fold change /veh RNFT2 (11725882_a_at) / RFU NR4A2 (11747474_a_at) / Fold change /veh NR4A2 (11747474_a_at) / RFU ABCC12 (11746883_a_at) / Fold change /veh ABCC12 (11746883_a_at) / RFU TMEM136 (11760407_x_at) / Fold change /veh TMEM136 (11760407_x_at) / RFU CLDN22 /// WWC2 (11732394_at) / Fold change /veh CLDN22 /// WWC2 (11732394_at) / RFU HLA-DPB1 (11760878_x_at) / Fold change /veh HLA-DPB1 (11760878_x_at) / RFU SPINT1 (11716480_a_at) / Fold change /veh SPINT1 (11716480_a_at) / RFU GAP43 (11754022_s_at) / Fold change /veh GAP43 (11754022_s_at) / RFU A4GNT (11735810_at) / Fold change /veh A4GNT (11735810_at) / RFU PRB3 (11715151_x_at) / Fold change /veh PRB3 (11715151_x_at) / RFU TUBB4B (11761932_at) / Fold change /veh TUBB4B (11761932_at) / RFU CAPN14 (11732068_a_at) / Fold change /veh CAPN14 (11732068_a_at) / RFU TMCC2 (11721928_a_at) / Fold change /veh TMCC2 (11721928_a_at) / RFU IRGQ (11745062_a_at) / Fold change /veh IRGQ (11745062_a_at) / RFU FAM174B (11720279_a_at) / Fold change /veh FAM174B (11720279_a_at) / RFU TMPRSS4 (11748680_a_at) / Fold change /veh TMPRSS4 (11748680_a_at) / RFU FAM212B (11763350_a_at) / Fold change /veh FAM212B (11763350_a_at) / RFU PLEKHG5 (11743358_a_at) / Fold change /veh PLEKHG5 (11743358_a_at) / RFU ZSCAN30 (11745921_a_at) / Fold change /veh ZSCAN30 (11745921_a_at) / RFU CMKLR1 (11741424_a_at) / Fold change /veh CMKLR1 (11741424_a_at) / RFU LOC101060620 /// MAPK8IP1 (11723275_at) / Fold change /veh LOC101060620 /// MAPK8IP1 (11723275_at) / RFU SPTSSB (11747773_x_at) / Fold change /veh SPTSSB (11747773_x_at) / RFU PRSS12 (11739890_at) / Fold change /veh PRSS12 (11739890_at) / RFU BIN1 (11741810_x_at) / Fold change /veh BIN1 (11741810_x_at) / RFU WNT11 (11732464_a_at) / Fold change /veh WNT11 (11732464_a_at) / RFU C10orf10 (11716521_a_at) / Fold change /veh C10orf10 (11716521_a_at) / RFU C5orf56 (11738089_at) / Fold change /veh C5orf56 (11738089_at) / RFU CYB561 (11721691_x_at) / Fold change /veh CYB561 (11721691_x_at) / RFU ANKRD19P (11752326_a_at) / Fold change /veh ANKRD19P (11752326_a_at) / RFU OR2T12 /// OR2T33 /// OR2T8 (11738714_s_at) / Fold change /veh OR2T12 /// OR2T33 /// OR2T8 (11738714_s_at) / RFU VCAN (11748164_a_at) / Fold change /veh VCAN (11748164_a_at) / RFU JSRP1 (11732532_at) / Fold change /veh JSRP1 (11732532_at) / RFU KRTAP10-11 (11738290_x_at) / Fold change /veh KRTAP10-11 (11738290_x_at) / RFU MYO3A (11730013_a_at) / Fold change /veh MYO3A (11730013_a_at) / RFU EBF3 (11725865_a_at) / Fold change /veh EBF3 (11725865_a_at) / RFU CAMK2N1 (11719241_x_at) / Fold change /veh CAMK2N1 (11719241_x_at) / RFU C5orf56 (11738088_a_at) / Fold change /veh C5orf56 (11738088_a_at) / RFU OLFML3 (11715873_a_at) / Fold change /veh OLFML3 (11715873_a_at) / RFU LOC100653217 /// NTM (11731650_a_at) / Fold change /veh LOC100653217 /// NTM (11731650_a_at) / RFU MAPK11 (11762145_a_at) / Fold change /veh MAPK11 (11762145_a_at) / RFU FIZ1 (11724087_x_at) / Fold change /veh FIZ1 (11724087_x_at) / RFU OASL (11726364_x_at) / Fold change /veh OASL (11726364_x_at) / RFU SOX15 (11748057_x_at) / Fold change /veh SOX15 (11748057_x_at) / RFU CD79A (11719716_a_at) / Fold change /veh CD79A (11719716_a_at) / RFU HIST1H1D (11736915_at) / Fold change /veh HIST1H1D (11736915_at) / RFU CASKIN2 (11723855_a_at) / Fold change /veh CASKIN2 (11723855_a_at) / RFU LOC730098 (11760151_x_at) / Fold change /veh LOC730098 (11760151_x_at) / RFU OR4N2 (11742367_at) / Fold change /veh OR4N2 (11742367_at) / RFU PRRT2 (11749266_a_at) / Fold change /veh PRRT2 (11749266_a_at) / RFU SNX32 (11753110_a_at) / Fold change /veh SNX32 (11753110_a_at) / RFU CDHR5 (11726645_a_at) / Fold change /veh CDHR5 (11726645_a_at) / RFU RCAN1 (11760418_a_at) / Fold change /veh RCAN1 (11760418_a_at) / RFU FAM167A (11723789_a_at) / Fold change /veh FAM167A (11723789_a_at) / RFU FAM26E (11764081_at) / Fold change /veh FAM26E (11764081_at) / RFU ISYNA1 (11749810_s_at) / Fold change /veh ISYNA1 (11749810_s_at) / RFU ACY1 (11761880_at) / Fold change /veh ACY1 (11761880_at) / RFU 11764098_at / Fold change /veh 11764098_at / RFU SAMD14 (11745864_x_at) / Fold change /veh SAMD14 (11745864_x_at) / RFU NPB (11741838_a_at) / Fold change /veh NPB (11741838_a_at) / RFU TMPRSS6 (11731388_a_at) / Fold change /veh TMPRSS6 (11731388_a_at) / RFU KRTAP10-2 (11738614_at) / Fold change /veh KRTAP10-2 (11738614_at) / RFU ARHGAP8 /// PRR5-ARHGAP8 (11727945_x_at) / Fold change /veh ARHGAP8 /// PRR5-ARHGAP8 (11727945_x_at) / RFU KRTAP5-7 /// NADSYN1 (11734609_at) / Fold change /veh KRTAP5-7 /// NADSYN1 (11734609_at) / RFU RASL12 (11751679_a_at) / Fold change /veh RASL12 (11751679_a_at) / RFU CDKN2B (11736163_a_at) / Fold change /veh CDKN2B (11736163_a_at) / RFU PRF1 (11729649_at) / Fold change /veh PRF1 (11729649_at) / RFU, ZNF638 /// ZNF638-IT1 / Fold change vs veh, ZNF638 /// ZNF638-IT1 / RFU, PANK3 / Fold change vs veh, PANK3 / RFU, SH3YL1 / Fold change vs veh, SH3YL1 / RFU, ZEB2 / Fold change vs veh, ZEB2 / RFU, NRIP1 / Fold change vs veh, NRIP1 / RFU, PTTG1IP / Fold change vs veh, PTTG1IP / RFU, CAPN2 / Fold change vs veh, CAPN2 / RFU, MED14 / Fold change vs veh, MED14 / RFU, SNORA58 / Fold change vs veh, SNORA58 / RFU, C1orf63 / Fold change vs veh, C1orf63 / RFU, LRRFIP1 / Fold change vs veh, LRRFIP1 / RFU, NDUFAF7 / Fold change vs veh, NDUFAF7 / RFU, SLC12A2 / Fold change vs veh, SLC12A2 / RFU, IBTK / Fold change vs veh, IBTK / RFU, ESF1 / Fold change vs veh, ESF1 / Fold change vs veh, TMEM50B / RFU, TAOK1 / Fold change vs veh, TAOK1 / RFU, ACBD3 / Fold change vs veh, ACBD3 / RFU, TMA16 / Fold change vs veh, TMA16 / RFU, RWDD3 / Fold change vs veh, RWDD3 / RFU, BCAT1 / Fold change vs veh, BCAT1 / RFU, EDEM3 / Fold change vs veh, EDEM3 / RFU, TMEM33 / Fold change vs veh, TMEM33 / RFU, WDR75 / Fold change vs veh, WDR75 / RFU, AHCTF1 / Fold change vs veh, AHCTF1 / RFU, TFRC / Fold change vs veh, TFRC / RFU, ZDHHC17 / Fold change vs veh, ZDHHC17 / RFU, NOM1 / Fold change vs veh, NOM1 / RFU, ARL8B / Fold change vs veh, ARL8B / RFU, ZBTB11 / Fold change vs veh, ZBTB11 / RFU, TAMM41 / Fold change vs veh, TAMM41 / RFU, KIAA1704 /// LOC100996395 / Fold change vs veh, KIAA1704 /// LOC100996395 / RFU, ING1 / Fold change vs veh, ING1 / RFU, TRMT61B / Fold change vs veh, TRMT61B / RFU, FUBP3 / Fold change vs veh, FUBP3 / RFU, TP53 / Fold change vs veh, TP53 / RFU, TNKS2 / Fold change vs veh, TNKS2 / RFU, ZFP14 / Fold change vs veh, ZFP14 / RFU, ACTR2 / Fold change vs veh, ACTR2 / RFU, PPP3R1 / Fold change vs veh, PPP3R1 / RFU, PIK3R1 / Fold change vs veh, PIK3R1 / RFU, HNRNPA1 / Fold change vs veh, HNRNPA1 / RFU, RNF170 / Fold change vs veh, RNF170 / RFU, ZNF28 / Fold change vs veh, ZNF28 / RFU, RNGTT / Fold change vs veh, RNGTT / RFU, OGT / Fold change vs veh, OGT / RFU, BRD1 / Fold change vs veh, BRD1 / RFU, MARS / Fold change vs veh, MARS / RFU, ZNF655 / Fold change vs veh, ZNF655 / RFU, FAHD1 / Fold change vs veh, FAHD1 / RFU, BDP1 / Fold change vs veh, BDP1 / RFU, LRRCC1 / Fold change vs veh, LRRCC1 / RFU, ARID1A / Fold change vs veh, ARID1A / RFU, ZNF146 / Fold change vs veh, ZNF146 / RFU, ZNF330 / Fold change vs veh, ZNF330 / RFU, GPN3 / Fold change vs veh, GPN3 / RFU, C9orf123 / Fold change vs veh, C9orf123 / RFU, N4BP2L2 / Fold change vs veh, N4BP2L2 / RFU, ARFIP1 / Fold change vs veh, ARFIP1 / RFU, FAM179B / Fold change vs veh, FAM179B / RFU, BCL10 / Fold change vs veh, BCL10 / RFU, UHRF1BP1L / Fold change vs veh, UHRF1BP1L / RFU, BET1 / Fold change vs veh, BET1 / RFU, CNOT2 / Fold change vs veh, CNOT2 / RFU, ZNF268 / Fold change vs veh, ZNF268 / Fold change vs veh, ZNF507 / RFU, DGCR2 / Fold change vs veh, DGCR2 / RFU, WDSUB1 / Fold change vs veh, WDSUB1 / Fold change vs veh, HSP90B1 /// MIR3652 / RFU, ADSS / Fold change vs veh, ADSS / RFU, GK / Fold change vs veh, GK / RFU, ZNF148 / Fold change vs veh, ZNF148 / RFU, TAF9 / Fold change vs veh, TAF9 / RFU, SLC1A5 / Fold change vs veh, SLC1A5 / RFU, SLMO2 / Fold change vs veh, SLMO2 / RFU, ABCC4 / Fold change vs veh, ABCC4 / RFU, LOC101060439 /// RAP1B / Fold change vs veh, LOC101060439 /// RAP1B / RFU, RFX7 / Fold change vs veh, RFX7 / RFU, GTPBP10 / Fold change vs veh, GTPBP10 / RFU, CNEP1R1 / Fold change vs veh, CNEP1R1 / RFU, BIVM-ERCC5 /// ERCC5 / Fold change vs veh, BIVM-ERCC5 /// ERCC5 / RFU, ILF3 / Fold change vs veh, ILF3 / RFU 11762660_at / Fold change /veh 11762660_at / RFU VCAN (11757783_s_at) / Fold change /veh VCAN (11757783_s_at) / RFU DDX43 (11728927_at) / Fold change /veh DDX43 (11728927_at) / RFU KRT8 (11758188_x_at) / Fold change /veh KRT8 (11758188_x_at) / RFU NKD1 (11759106_at) / Fold change /veh NKD1 (11759106_at) / RFU SRD5A1 (11742802_a_at) / Fold change /veh SRD5A1 (11742802_a_at) / RFU TPSAB1 /// TPSB2 (11721975_s_at) / Fold change /veh TPSAB1 /// TPSB2 (11721975_s_at) / RFU GSTM3 (11746129_a_at) / Fold change /veh GSTM3 (11746129_a_at) / RFU IL23R (11737362_x_at) / Fold change /veh IL23R (11737362_x_at) / RFU TMEM51 (11727254_a_at) / Fold change /veh TMEM51 (11727254_a_at) / RFU PIWIL2 (11732686_x_at) / Fold change /veh PIWIL2 (11732686_x_at) / RFU ORM1 (11744905_x_at) / Fold change /veh ORM1 (11744905_x_at) / RFU CCDC152 (11743942_at) / Fold change /veh CCDC152 (11743942_at) / RFU ECM1 (11717891_a_at) / Fold change /veh ECM1 (11717891_a_at) / RFU IL23R (11748794_a_at) / Fold change /veh IL23R (11748794_a_at) / RFU TNFAIP8L3 (11732012_x_at) / Fold change /veh TNFAIP8L3 (11732012_x_at) / RFU MBOAT4 (11741988_at) / Fold change /veh MBOAT4 (11741988_at) / RFU 11764193_at / Fold change /veh 11764193_at / RFU TMEM53 (11763286_at) / Fold change /veh TMEM53 (11763286_at) / RFU MAGEB2 (11727129_at) / Fold change /veh MAGEB2 (11727129_at) / RFU TMEM200A (11744735_a_at) / Fold change /veh TMEM200A (11744735_a_at) / RFU CCDC152 (11751479_a_at) / Fold change /veh CCDC152 (11751479_a_at) / RFU FAM211A (11726209_a_at) / Fold change /veh FAM211A (11726209_a_at) / RFU RGS16 (11746705_a_at) / Fold change /veh RGS16 (11746705_a_at) / RFU VCAN (11755009_s_at) / Fold change /veh VCAN (11755009_s_at) / RFU RHOB (11743442_s_at) / Fold change /veh RHOB (11743442_s_at) / RFU RGS16 (11720943_a_at) / Fold change /veh RGS16 (11720943_a_at) / RFU RGS16 (11720944_at) / Fold change /veh RGS16 (11720944_at) / RFU, VPS4B / Fold change vs veh, VPS4B / RFU, CREB1 / Fold change vs veh, CREB1 / RFU, DNAJC13 / Fold change vs veh, DNAJC13 / RFU, GNAQ / Fold change vs veh, GNAQ / RFU, CDK5R1 / Fold change vs veh, CDK5R1 / RFU, ZRANB3 / Fold change vs veh, ZRANB3 / RFU, CUL4A / Fold change vs veh, CUL4A / RFU, CCNY / Fold change vs veh, CCNY / RFU, UFL1 / Fold change vs veh, UFL1 / RFU, COG3 / Fold change vs veh, COG3 / RFU, DIAPH2 / Fold change vs veh, DIAPH2 / RFU, SKA2 / Fold change vs veh, SKA2 / RFU, AFF3 / Fold change vs veh, AFF3 / RFU, LMF1 / Fold change vs veh, LMF1 / RFU, IPO11 / Fold change vs veh, IPO11 / RFU, DFFB / Fold change vs veh, DFFB / RFU, FOXP1 / Fold change vs veh, FOXP1 / RFU, CARD8 / Fold change vs veh, CARD8 / RFU, STRN3 / Fold change vs veh, STRN3 / RFU, ADK / Fold change vs veh, ADK / RFU, RASSF2 / Fold change vs veh, RASSF2 / RFU, WIPF1 / Fold change vs veh, WIPF1 / RFU, LARP1B / Fold change vs veh, LARP1B / RFU, RASA1 / Fold change vs veh, RASA1 / RFU, RB1 / Fold change vs veh, RB1 / RFU, PPFIA1 / Fold change vs veh, PPFIA1 / RFU, MAT2A / Fold change vs veh, MAT2A / RFU, CCT5 / Fold change vs veh, CCT5 / RFU, WDR92 / Fold change vs veh, WDR92 / RFU, CUX1 / Fold change vs veh, CUX1 / RFU, TTC7A / Fold change vs veh, TTC7A / RFU, TMEM135 / Fold change vs veh, TMEM135 / RFU, DEPTOR / Fold change vs veh, DEPTOR / RFU, CPM / Fold change vs veh, CPM / RFU, DNAJB6 / Fold change vs veh, DNAJB6 / RFU, CACNA2D3 / Fold change vs veh, CACNA2D3 / RFU, DTX4 / Fold change vs veh, DTX4 / RFU, TFCP2 / Fold change vs veh, TFCP2 / RFU, GMCL1 /// GMCL1P1 / Fold change vs veh, GMCL1 /// GMCL1P1 / RFU, AEBP2 / Fold change vs veh, AEBP2 / RFU, SNHG1 /// SNORD22 /// SNORD25 /// SNORD26 /// SNORD27 /// SNORD28 /// SNORD29 /// SNORD31 / Fold change vs veh, SNHG1 /// SNORD22 /// SNORD25 /// SNORD26 /// SNORD27 /// SNORD28 /// SNORD29 /// SNORD31 / Fold change (Aza/veh), C12orf56 (ProbeSet 11735607_a_at) / Fold change (ACY-1035/veh), C12orf56 (ProbeSet 11735607_a_at) / Fold change (Aza/veh), FGFR1OP (ProbeSet 11751329_s_at) / Fold change (ACY-1035/veh), FGFR1OP (ProbeSet 11751329_s_at) / Fold change (Aza/veh), VPS36 (ProbeSet 11739960_a_at) / Fold change (ACY-1035/veh), VPS36 (ProbeSet 11739960_a_at) / RFU SYPL1 (11715823_x_at) / Fold change /veh SYPL1 (11715823_x_at) / RFU IGFBP7 (11715501_s_at) / Fold change /veh IGFBP7 (11715501_s_at) / RFU REEP3 (11722064_at) / Fold change /veh REEP3 (11722064_at) / RFU IGLL1 (11728026_x_at) / Fold change /veh IGLL1 (11728026_x_at): dose or concentration left out as unconfirmed
Details: ProbeSet 11723930_at; LIST D

## Nc1ccc(-c2cccs2)cc1NC(=O)c1ccc2c(c1)cc(C1CC1)n2CCN1CCOCC1 [ACY-1035]
  Fold change vs veh, CCT5: 0.85
